| Structure (SMILES) | melting point |
| --- | --- |
| CCCCC1CC(n2c3ccccc3c3ccccc32)c2ccccc2N1C(=O)c1ccc(OC)c(OC)c1 (stereo not drawn) [Example 40, 2,4-cis-2-Butyl-4-(9H-9-carbazolyl)-1-(3,4-dimethoxybenzoyl)-1,2,3,4-tetrahydroquinoline] | 213 °C |
| COc1ccc(C(=O)N2c3ccccc3C(N3CCc4ccccc4C3)CC2C)cc1OC (stereo not shown) [Example 73, 1-(3,4-Dimethoxybenzoyl)-2-methyl-4-(1,2,3,4-tetrahydroisoquinolin-2-yl)-1,2,3,4-tetrahydroquinoline] | 128 to 129 °C |
| COc1ccc(C(=O)N2c3ccccc3C(N3CCCc4cc(C(C)C)ccc43)CC2C)cc1OC (stereo not drawn) [Example 85, 2,4-cis-4-(6-Isopropyl-1,2,3,4-tetrahydroquinolin-1-yl)-1-(3,4-dimethoxybenzoyl)-2-methyl-1,2,3,4-tetrahydroquinoline] | 187 to 188 °C |
| CCCC1CC(N2CCCc3ccccc32)c2ccccc2N1C(=O)c1ccc(OC)c(OC)c1 (stereo not drawn) [Example 75, 2,4-cis-1-(3,4-Dimethoxybenzoyl)-2-propyl-4-(1,2,3,4-tetrahydroquinolin-1-yl)-1,2,3,4-tetrahydroquinoline] | 176 to 177 °C |
| COc1ccc(C(=O)N2c3ccccc3C(N3CCCc4cc(OCc5ccccc5)ccc43)CC2C)cc1OC (stereo not drawn) (hydrate or solvate) [Example 101, 2,4-cis-4-(6-Benzyloxy-1,2,3,4-tetrahydroquinolin-1-yl)-1-(3,4-dimethoxybenzoyl)-2-methyl-1,2,3,4-tetrahydroquinoline] | 164 to 165 °C |
| COc1ccc(C(=O)N2c3ccccc3C(N3CCCc4cc(C)ccc43)CC2C)cc1OC (stereo not drawn) [Example 83, 2,4-cis-1-(3,4-Dimethoxybenzoyl)-2-methyl-4-(6-methyl-1,2,3,4-tetrahydroquinolin-1-yl)-1,2,3,4-tetrahydroquinoline] | 184 to 185 °C |
| CCCCC1C(O)C(N2CCCc3ccccc32)c2ccccc2N1C(=O)c1ccc(OC)c(OC)c1 (stereo not drawn) [Example 76, 2,3-trans-2,4-cis-2-Butyl-1-(3,4-dimethoxybenzoyl)-3-hydroxy-4-(1,2,3,4-tetrahydroquinolin-1-yl)-1,2,3,4-tetrahydroquinoline] | 200 to 202 °C |
| COc1ccc(C(=O)N2c3ccccc3C(N3CCCc4ccccc43)C(OC(C)=O)C2C)cc1OC (racemic) [Example 17, 2,3-trans-2,4-cis-3-Acetoxy-1-(3,4-dimethoxybenzoyl)-2-methyl-4-(1,2,3,4-tetrahydroquinolin-1-yl)-1,2,3,4-tetrahydroquinoline] | 130 to 131 °C |
| CCCCC1C=C(n2c3ccccc3c3ccccc32)c2ccccc2N1C(=O)c1ccc(OC)c(OC)c1 (stereo not shown) [Example 59, 2-Butyl-4-(9H-9-carbazolyl)-1-(3,4-dimethoxybenzoyl)-1,2-dihydroquinoline] | 174 to 175 °C |
| COc1ccc(C(=O)N2c3ccccc3C(N3CCCc4cc(C(C)C)ccc43)C(O)C2C)cc1OC (stereo not drawn) [Example 84, 2,3-trans-2,4-cis-1-(3,4-Dimethoxybenzoyl)-3-hydroxy-4-(6-isopropyl-1,2,3,4-tetrahydroquinolin-1-yl)-2-methyl-1,2,3,4-tetrahydroquinoline] | 165 to 166 °C |
| CCCCC1CC(N2CCCc3ccccc32)c2ccccc2N1C(=O)c1ccc(OC)c(OC)c1 (stereo not drawn) [Example 77, 2,4-cis-2-Butyl-1-(3,4-dimethoxybenzoyl)-4-(1,2,3,4-tetrahydroquinolin-1-yl)-1,2,3,4-tetrahydroquinoline] | 159 to 160 °C |
| COc1ccc(C(=O)N2c3ccccc3C(N3CCSc4ccccc43)CC2C)cc1OC (stereo not shown) [Example 72, 4-[1-(3,4-Dimethoxybenzoyl)-2-methyl-1,2,3,4-tetrahydroquinolin-4-yl]-3,4-dihydro-2H-1,4-benzothiazine] | 113 to 114 °C |
| COc1ccc(C(=O)N2c3ccccc3C(N3CCCc4ccc(C)cc43)CC2C)cc1OC (stereo not drawn) [Example 81, 2,4-cis-1-(3,4-Dimethoxybenzoyl)-2-methyl-4-(7-methyl-1,2,3,4-tetrahydroquinolin-1-yl)-1,2,3,4-tetrahydroquinoline] | 197 to 198 °C |
| COc1ccc(C(=O)N2CCC(N3CC4(CCN(Cc5ccccc5)CC4)c4ccccc43)c3ccccc32)cc1OC (stereo not shown) | 155 to 157 °C |
| COc1ccc(C(=O)N2c3ccccc3C(N3CCc4ccccc43)CC2C)cc1OC (stereo not shown) [Example 61, 4-(2,3-Dihydro-1H-indol-1-yl)-1-(3,4-dimethoxybenzoyl)-2-methyl-1,2,3,4-tetrahydroquinoline] | 147 to 148 °C |
| COc1ccc(C(=O)N2CCC(N3CCc4ccccc43)c3ccccc32)cc1OC (stereo not shown) [Example 2, 4-(2,3-Dihydro-1H-indol-1-yl)-1-(3,4-dimethoxybenzoyl)-1,2,3,4-tetrahydroquinoline] | 121 to 123 °C |
| COc1ccc(C(=O)N2c3ccccc3C(n3c4ccccc4c4ccccc43)CC2COCc2ccccc2)cc1OC (stereo not shown) [Example 43, 2-[(Benzyloxy)methyl]-4-(9H-9-carbazolyl)-1-(3,4-dimethoxybenzoyl)-1,2,3,4-tetrahydroquinoline] | 203 to 204 °C |

Results, then the molecule that gave them:

| melting point | Structure (SMILES) |
| --- | --- |
| 162 to 163 °C | COc1ccc(C(=O)N2c3ccccc3C(N3CCCc4c(Cl)cccc43)=CC2C)cc1OC (stereo not shown) [Example 160, 4-(5-Chloro-1,2,3,4-tetrahydroquinolin-1-yl)-1-(3,4-dimethoxybenzoyl)-2-methyl-1,2-dihydroquinoline] |
| 232 to 233 °C | CCCCC1CC(n2c3ccccc3c3ccccc32)c2ccccc2N1C(=O)c1ccc(OCC)c(OCC)c1 (stereo not drawn) [Example 149, 2,4-cis-9-[2-Butyl-1-(3,4-diethoxybenzoyl)-1,2,3,4-tetrahydro-4-quinolinyl]-9H-carbazole] |
| 157 to 158 °C | CCOc1ccc(C(=O)N2c3ccccc3C(N3CCCc4ccccc43)CC2C)cc1OCC (stereo not shown) [Example 102, 1-(3,4-Diethoxybenzoyl)-2-methyl-4-(1,2,3,4-tetrahydroquinolin-1-yl)-1,2,3,4-tetrahydroquinoline] |
| 167 to 168 °C | CCOC(=O)CCCCC1CC(n2c3ccccc3c3ccccc32)c2ccccc2N1C(=O)c1ccc(OC)cc1 (stereo not shown) [Example 157, Ethyl 5-[4-(9H-9-carbazolyl)-1-(4-methoxybenzoyl)-1,2,3,4-tetrahydro-2-quinolinyl]pentanoate] |
| 214 to 215 °C | CCOc1ccc(C(=O)N2c3ccccc3C(n3c4ccccc4c4ccccc43)CC2C)cc1OC (stereo not drawn) (hydrate or solvate) [Example 143, 2,4-cis-4-(9H-9-Carbazolyl)-1-(4-ethoxy-3-methoxybenzoyl)-2-methyl-1,2,3,4-tetrahydroquinoline] |
| 220 °C | CCCC1CC(n2c3ccccc3c3ccccc32)c2ccccc2N1C(=O)c1ccc(OCC)c(OCC)c1 (stereo not drawn) (hydrate or solvate) [Example 147, 2,4-cis-4-(9H-9-Carbazolyl)-1-(3,4-diethoxybenzoyl)-2-propyl-1,2,3,4-tetrahydroquinoline] |
| 236 to 237 °C | COc1ccc(C(=O)N2c3ccccc3C(n3c4ccccc4c4ccccc43)CC2CCCNC(=O)c2ccccc2)cc1OC (stereo not drawn) [Example 124, N-[3-[2,4-cis-4-(9H-9-Carbazolyl)-1-(3,4-dimethoxybenzoyl)-1,2,3,4-tetrahydroquinolin-2-yl]propyl]-benzamide] |
| 210 to 211 °C | CCC1CC(n2c3ccccc3c3ccccc32)c2ccccc2N1C(=O)c1ccc(SC)c(OC)c1 (stereo not drawn) [Example 150, 2,4-cis-9-[2-Ethyl-1-(3-methoxy-4-methylthiobenzoyl)-1,2,3,4-tetrahydro-4-quinolinyl]-9H-carbazole] |
| 231 to 232 °C | CCCCC1CC(n2c3ccccc3c3ccccc32)c2ccccc2N1C(=O)c1ccc(OCC)c(OC)c1 (stereo not drawn) [Example 148, 2,4-cis-9-[2-Butyl-1-(4-ethoxy-3-methoxybenzoyl)-1,2,3,4-tetrahydro-4-quinolinyl]-9H-carbazole] |
| 230 to 231 °C | CCCCC1CC(n2c3ccccc3c3ccccc32)c2ccccc2N1C(=O)c1ccc(SC)c(OC)c1 (stereo not drawn) [Example 151, 2,4-cis-9-[2-Butyl-1-(3-methoxy-4-methylthiobenzoyl)-1,2,3,4-tetrahydro-4-quinolinyl]-9H-carbazole] |
| 140 to 142 °C | CCOc1ccc(C(=O)N2c3ccccc3C(N3CCCc4ccccc43)CC2C)cc1OC (stereo not shown) (hydrate or solvate) [Example 103, 1-(4-Ethoxy-3-methoxybenzoyl)-2-methyl-4-(1,2,3,4-tetrahydroquinolin-1-yl)-1,2,3,4-tetrahydroquinoline] |
| 184 to 185 °C | COc1ccc(C(=O)N2c3ccccc3C(n3c4ccccc4c4ccccc43)=CC2C)cc1OC (stereo not shown) [Example 161, 4-(9H-9-Carbazolyl)-1-(3,4-dimethoxybenzoyl)-2-methyl-1,2-dihydroquinoline] |
| 192 to 194 °C | COc1ccc(C(=O)N2c3ccccc3C(n3c4ccccc4c4ccccc43)CC2CCCO)cc1OC (stereo not drawn) [Example 118, 3-[2,4-cis-4-(9H-9-Carbazolyl)-1-(3,4-dimethoxybenzoyl)-1,2,3,4-tetrahydroquinolin-2-yl]-1-propanol] |
| 194 to 195 °C | COc1ccc(C(=O)N2c3ccccc3C(n3c4ccccc4c4ccccc43)C(O)C2C)cc1OC (stereo not shown) (hydrate or solvate) [Example 162, 4-(9H-9-Carbazolyl)-1-(3,4-dimethoxybenzoyl)-3-hydroxy-2-methyl-1,2,3,4-tetrahydroquinoline] |
| 240 to 241 °C | CCOc1ccc(C(=O)N2c3ccccc3C(n3c4ccccc4c4ccccc43)CC2C)cc1OCC (stereo not drawn) (hydrate or solvate) [Example 144, 2,4-cis-4-(9H-9-Carbazolyl)-1-(3,4-diethoxybenzoyl)-2-methyl-1,2,3,4-tetrahydroquinoline] |
| 225 to 226 °C | COc1ccc(C(=O)N2c3ccccc3C(n3c4ccccc4c4ccccc43)CC2CCCc2ccccc2)cc1OC (stereo not drawn) [Example 116, 9-[2,4-cis-1-(3,4-Dimethoxybenzoyl)-2-(3phenylpropyl)-1,2,3,4-tetrahydroquinolin-4-yl]-9H-carbazole] |
| 199 to 201 °C | CCCC(=O)NCCCC1CC(n2c3ccccc3c3ccccc32)c2ccccc2N1C(=O)c1ccc(OC)c(OC)c1 (stereo not drawn) [Example 122, N-[3-[2,4-cis-4-(9H-9-Carbazolyl)-1-(3,4-dimethoxybenzoyl)-1,2,3,4-tetrahydroquinolin-2-yl]propyl]butanamide] |
